The source of these data is article PMC5317004 (Scientific Reports, 2017).

Where “and” joins values, the source holds several entries; their conditions need not be identical. Equal values may be shown once.

For series [1] the following is noted: LUVs 6 mM, 5 minutes incubation plus 20-minutes ultracentrifugation; depending on the LUVs' lipid composition; cited from earlier work.
Another series relates to chimeric α7-GluClβR. The series is described as follows: IVM added after activation by ACh: kinetics and extent of current decline (whole-cell patch clamp). The format is cell-based, chick nAChR α7 / C. elegans GluClβ. On the procedure:
Following a further wash (for a minute), the same cell was challenged again with a 5-μM-IVM solution (in 0.01% DMSO; red bar, arrow and trace). Recordings were performed at −60 mV. (B) Time constant of current decline (τd). Values of τd were determined by exponential fits to the declining phase of the currents using Eq. 3. […] Error bars correspond to SEM of N = 6 and N = 5 cells for recordings at −60 mV and −20 mV, respectively. Paired, two-tailed Student’s t-tests indicate that for not significant (“ns”) P > 0.3, and ** 0.001 < P < 0.005.
Figure 8 The inhibition of ACh-elicited currents by addition of IVM is irreversible. […] (B) Representative currents for the same experiment as in A, but with the exception of IVM (0.5 μM) addition after the ACh-elicited current reached to its peak (IP1). Inset, magnification of the indicated segment of the current trace. In both panels A and B, black bars above the current traces indicate ACh or IVM applications. […] Error bars correspond to SEM. Unpaired, two-tailed Student’s t-tests indicate *** P < 0.0001.
The declining phase of the currents was fitted with an exponential time course to give the time constant of current decline by using equation 3, […]
I is the current, IP is the peak of the current, IS is the steady state current, t is the time, and τ is the time constant of current decline. […]
Supplementary Materials and Methods
The structural mo del of the chi meric α7-GluClβR was built based on th e methodologies published previously1,2, and the sequence of the chimeric subunit is presented in […]
DNA construct and preparation of cells for electrophysiological experiments The cDNA encoding the α7-GluClβ chimeric subunit was generated as described previously3, and was cloned into a pcDNA3.1 vector.
Chinese hamster ovary cells (CHO-K1, ATCC via Biological Industries Israel, Beit Haemek Ltd.) were cultured as performed previously2 in Dulbecco 's Modified E agle Med iu m (DMEM) containing 10% fetal calf serum (Biological Industries Israel Beit Haemek Ltd.), 2 mM glutamax, 100 Units/ml penicillin G and 100 μg/ml streptomycin, and grown in 5% CO2 at 37°C under 90-95% hu midity . CHO cells were seeded on glass coverslips (13-mm diameter) placed in a 24-multiwell plate. For the expression of the α7-GluClβR, cells were transiently transfected with the pcDNA3.1 plasmid containing the receptor’s ORF (200-600 ng per well) using transit-LT1 transfection reagent (Mirus, USA), according to the manufacturer’s protocol. pIRES-CD8 plas mid (200 ng per well) was also added to enable visualization of the ex pressing cells by beads coated with anti-CD8 antibodies (Invitrogen). For the expression of GluClβ ho mo mers, we used the pcDNA3.1 plas mid containing the GluClβ-subunit ORF (600-1000 ng per well), pIRES-CD8 plas mid (200 ng per well) and th e X-tremeGENE HP DNA Transfection Reagent (Roche Life Science). Recordings were performed 48-72 hours following transfection.
Whole-cell patch clamp recordings
Recordings were performed in the aforementioned CHO cells, as previously described1,2. Whole-cell patch clamp experiments were performed with normal external solution (NES) contained (in millimolar): 140 NaCl, 2.8 KCl, 2 CaCl2, 2 MgCl2, 10 glucose and 10 HEPES, adjusted to pH 7.35 with NaOH (310 mOsM). The pipette solution contained […]
(in millimolar): 130 KCl, 4 MgCl2, 4 Na2ATP, 1 EGTA and 10 HEPES, adjusted to pH 7.35 with KOH (290 mOsM). The osmolarity of these solutions was maintained by adding sucrose.
The electrode resistance was 6-10 MΩ when filled with the pipette solution. External solutions were applied onto the cell by using the VC-77SP fast-step system (Warner Instruments, CT, USA) combined with N2 pressure of 3-4 psi to produce laminar flow of the external solution onto the patched cell. All measurements were performed at 25 °C. The currents w ere measured with an Axopatch 200B patch-clamp amplifier (Molecular Devices, Sunnyvale, CA) and a Digidata 1440A interface (Molecular Devices). […]
A general note: The patch-clamp technique gives a direct electrical read-out from membranes.

[2] abbreviates: 30 μM ACh + 0.5 μM IVM, 9.6 sec, N = 10.

With `CC[C@H](C)[C@H]1O[C@]2(CC[C@@H]1C)C[C@@H]1C[C@@H](C/C=C(\C)[C@@H](O[C@H]3C[C@H](OC)[C@@H](O[C@H]4C[C@H](OC)[C@@H](O)[C@H](C)O4)[C@H](C)O3)[C@@H](C)/C=C/C=C3\CO[C@@H]4[C@H](O)C(C)=C[C@@H](C(=O)O1)[C@]34O)O2` [IVM, Ivermectin], in series [1], the “depletion of IVM from the aqueous solution” value is 50% and 70%. The “reduction of time constant of current decline (τd)” value in the series with chimeric α7-GluClβR (5 μM IVM added after peak of 350 μM ACh response, −60 mV and −20 mV) was “more than two folds”. Further, in the series with chimeric α7-GluClβR (30 μM ACh + 0.5 μM IVM), the “τd1 amplitude percentage (%A)” value stood at 55 ± 10% and the “τd2 amplitude percentage (%A)” value worked out at 45 ± 10%. In the series on chimeric α7-GluClβR (setting [2]), the “τd1, time constant of current decline” value amounted to 3370 ± 318 ms and the “τd2, time constant of current decline” value was 987 ± 120 ms. In the series on chimeric α7-GluClβR (six experiments as in Fig. 5A, 350 μM ACh, 5 μM IVM), the “time between the start of application and the onset of effect” value is 132 ± 24 milliseconds.
